Assay results from ChEMBL document CHEMBL1150472, “Synthesis and immunoregulating activity of vitamin D analogues bearing pregnane side chains” (Bioorg Med Chem Lett, 1992).

Test system: Rattus norvegicus
Test: Compound was tested in ratsdeficient in vitamin D at a dose of 125 ug/kg i.v.; NE denotes no effect was observed on bone calcium mobilization (BCM) and intestinal calcium absorption (ICA)
Type: functional, organism-based

## C=C1/C(=C\C=C2/CCC[C@@]3(C)C2CC[C@@H]3C(C)=O)CC(O)C[C@@H]1O (stereo partly specified)
  Activity: No effect
